Reference: US20250263440A1, “CD38-BINDING AGENTS AND USES THEREOF” (PeptiDream Inc., priority 2019, published 2025)
Positions of bridges follow the written chain, without caps; N, C: chain ends. Non-standard residues stand in square brackets, D forms with d. Residues, ends and D or L forms follow the SMILES beside them. *: point of attachment. Bip = N[C@@H](Cc1ccc(-c2ccccc2)cc1)C(=O)O; Met(O2) = CS(=O)(=O)CC[C@H](N)C(=O)O; hArg = N=C(N)NCCCC[C@H](N)C(=O)O; Ahp(2) = CCCCC[C@H](N)C(=O)O; hSer = N[C@@H](CCO)C(=O)O; X1 = COCCOCCOCCOCCC(=O)*

Molecular target: His-tagged CD38 (Homo sapiens, UniProt P28907)
Experiment: SPR assay (Biacore S200, Sensor Chip NTA, single-cycle kinetics) of SEQ ID NO.1 variants against His-tagged CD38
Assay type: binding
Conditions: for kon / koff: SPR Biacore S200, NTA chip, His-tagged CD38; for kon: read-out: Ka (association rate constant); for koff: read-out: Kd (dissociation rate constant); for Kd: SPR Biacore S200, His-tagged CD38, calculated from ka and kd
Protocol: SPR assay was performed using Biacore S200 (Cytiva: Former GE Healthcare).
After the equilibration of Series S Sensor Chip NTA (produced by Cytiva: Former GE Healthcare) with Running Buffer (10 mM HEPES pH7.4, 150 mM NaCl, 0.05% Tween 20), followed by injection of 350 mM EDTA at a flow rate of 10 L/min for 60 seconds and […] NiCl2 at a flow rate of 10 L/min for 60 seconds, then 3 mM EDTA at a flow rate of 10 L/min for 120 seconds, sequently, to wash the sensor chip.
EDC/NHS mixture was injected at a flow rate of […] for 7 minutes to thereby activate the functional groups on sensor chip. His-tagged CD38 in Running Buffer (10 mM HEPES pH7.4, 150 mM NaCl, 0.05% Tween 20) was injected immobilized to at a flow rate of […]. For 7 minutes to immobilize the CD38 on the substrate surfaces of the sensor chip. Then Ethanolamine was injected at a flow rate of […] for 7 minutes.
1.0 M Ethanolamine(aq.) was injected at a flow rate of 10 L/min for 420 seconds for capping. 10 mM peptides (which were synthesised described above) in DMSO were diluted to obtain 10 uM with Running Buffer, and prepared 100 nM, 50 nM, 25 nM, 10 nM, 5 nM of each peptide's solutions (Peptide Samples).
Using these Peptide Samples, kinetics of peptides against His-tagged CD38 was measured. The method adopted for sample measurement was a single-cycle kinetics method. The analysis was conducted using the evaluation software 1.1 provided with Biacore S200. A DMSO correction curve obtained by solvent correction measurements was applied for the analysis. Kinetics fitting was done on the difference data obtained by subtracting the baseline data from sample measurement data.
KD values were calculated based on the association rate constant (ka) and dissociation rate constant (kd).

Structure (SMILES) | kon | koff | Kd
CCCCC[C@@H]1NC(=O)[C@H](CCCNC(=N)N)NC(=O)[C@H](C)NC(=O)CSC[C@@H](C(N)=O)NC(=O)[C@H](CC(=O)O)NC(=O)[C@H](CCCCC)NC(=O)[C@H](Cc2ccc(-c3ccccc3)cc2)NC(=O)[C@H](CC(C)C)NC(=O)[C@H](C(C)C)NC(=O)[C@H](CCC(N)=O)NC(=O)[C@H](CC(=O)O)NC(=O)[C@H](Cc2c[nH]cn2)NC(=O)[C@H](Cc2ccc(O)cc2)NC1=O [compound 4] ({CH2CO}-AR[Ahp(2)]YHDQVL[Bip][Ahp(2)]DC-NH2; thioether N-13 (inferred); N-terminus and C-terminus assumed) | 533000 M⁻¹ s⁻¹ | 0.0023 s⁻¹ | –
CCCCC[C@@H]1NC(=O)[C@H](CCCNC(=N)N)NC(=O)[C@H](C)NC(=O)CSC[C@@H](C(N)=O)NC(=O)[C@H](CC(=O)O)NC(=O)[C@H](CCCCC)NC(=O)[C@H](Cc2ccc(-c3ccccc3)cc2)NC(=O)[C@H](CC(C)C)NC(=O)[C@H](C(C)C)NC(=O)[C@H](CC(N)=O)NC(=O)[C@H](CC(=O)O)NC(=O)[C@H](Cc2c[nH]cn2)NC(=O)[C@H](Cc2ccc(O)cc2)NC1=O [compound 5] ({CH2CO}-AR[Ahp(2)]YHDNVL[Bip][Ahp(2)]DC-NH2; thioether N-13) | 766000 M⁻¹ s⁻¹ | 0.00161 s⁻¹ | –
CCCCC[C@@H]1NC(=O)[C@H](CCCNC(=N)N)NC(=O)[C@H](C)NC(=O)CSC[C@@H](C(N)=O)NC(=O)[C@H](CC(=O)O)NC(=O)[C@H](CCCCC)NC(=O)[C@H](Cc2ccc(-c3ccccc3)cc2)NC(=O)[C@H](CC(C)C)NC(=O)[C@H](C(C)C)NC(=O)[C@H](CCS(C)(=O)=O)NC(=O)[C@H](CC(=O)O)NC(=O)[C@H](Cc2c[nH]cn2)NC(=O)[C@H](Cc2ccc(O)cc2)NC1=O [compound 6] ({CH2CO}-AR[Ahp(2)]YHD[Met(O2)]VL[Bip][Ahp(2)]DC-NH2; thioether N-13) | 631000 M⁻¹ s⁻¹ | 0.00186 s⁻¹ | 2.94 nM
CCCCC[C@@H]1NC(=O)[C@H](CCCNC(=N)N)NC(=O)[C@H](C)NC(=O)CSC[C@@H](C(N)=O)NC(=O)[C@H](CC(=O)O)NC(=O)[C@H](CCCCC)NC(=O)[C@H](Cc2ccc(-c3ccccc3)cc2)NC(=O)[C@H]([C@@H](C)O)NC(=O)[C@H](C(C)C)NC(=O)CNC(=O)[C@H](CC(=O)O)NC(=O)[C@H](Cc2c[nH]cn2)NC(=O)[C@H](Cc2ccc(O)cc2)NC1=O [compound 7] ({CH2CO}-AR[Ahp(2)]YHDGVT[Bip][Ahp(2)]DC-NH2; thioether N-13) | 819000 M⁻¹ s⁻¹ | 0.0535 s⁻¹ | –
CCCCC[C@@H]1NC(=O)[C@H](CCCNC(=N)N)NC(=O)[C@H](C)NC(=O)CSC[C@@H](C(N)=O)NC(=O)[C@H](CC(=O)O)NC(=O)[C@H](CCCCC)NC(=O)[C@H](Cc2ccc(-c3ccccc3)cc2)NC(=O)[C@H](CCO)NC(=O)[C@H](C(C)C)NC(=O)CNC(=O)[C@H](CC(=O)O)NC(=O)[C@H](Cc2c[nH]cn2)NC(=O)[C@H](Cc2ccc(O)cc2)NC1=O [compound 8] ({CH2CO}-AR[Ahp(2)]YHDGV[hSer][Bip][Ahp(2)]DC-NH2; thioether N-13) | 790000 M⁻¹ s⁻¹ | 0.0306 s⁻¹ | 38.8 nM
CCCCC[C@@H]1NC(=O)[C@H](CCCNC(=N)N)NC(=O)[C@H](C)NC(=O)CSC[C@@H](C(N)=O)NC(=O)[C@H](CC(=O)O)NC(=O)[C@H](CCCCC)NC(=O)[C@H](Cc2ccc(-c3ccccc3)cc2)NC(=O)[C@H](CCS(C)(=O)=O)NC(=O)[C@H](C(C)C)NC(=O)CNC(=O)[C@H](CC(=O)O)NC(=O)[C@H](Cc2c[nH]cn2)NC(=O)[C@H](Cc2ccc(O)cc2)NC1=O [compound 9] ({CH2CO}-AR[Ahp(2)]YHDGV[Met(O2)][Bip][Ahp(2)]DC-NH2; thioether N-13 (inferred); N-terminus and C-terminus assumed) | 664000 M⁻¹ s⁻¹ | 0.00627 s⁻¹ | –

The remaining lines, values ahead:

kon | koff | Kd | Structure (SMILES)
471000 M⁻¹ s⁻¹ | 0.00223 s⁻¹ | – | CCCCC[C@@H]1NC(=O)[C@H](CCCNC(=N)N)NC(=O)[C@H](C)NC(=O)CSC[C@@H](C(N)=O)NC(=O)[C@H](CC(=O)O)NC(=O)[C@H](CCCCC)NC(=O)[C@H](Cc2ccc(-c3ccccc3)cc2)NC(=O)[C@H](CC(C)C)NC(=O)[C@H](C(C)C)NC(=O)[C@H](CCC(=O)O)NC(=O)[C@H](CC(=O)O)NC(=O)[C@H](Cc2c[nH]cn2)NC(=O)[C@H](Cc2ccc(O)cc2)NC1=O [compound 10] ({CH2CO}-AR[Ahp(2)]YHDEVL[Bip][Ahp(2)]DC-NH2; thioether N-13 (inferred); N-terminus and C-terminus assumed)
1.6e+06 M⁻¹ s⁻¹ | 0.0019 s⁻¹ | – | CCCCC[C@@H]1NC(=O)[C@H](CCCNC(=N)N)NC(=O)[C@H](C)NC(=O)CSC[C@@H](C(N)=O)NC(=O)[C@H](CC(=O)O)NC(=O)[C@H](CCCCC)NC(=O)[C@H](Cc2ccc(-c3ccccc3)cc2)NC(=O)[C@H](CC(C)C)NC(=O)[C@H](C(C)C)NC(=O)[C@H](CCCNC(=N)N)NC(=O)[C@H](CC(=O)O)NC(=O)[C@H](Cc2c[nH]cn2)NC(=O)[C@H](Cc2ccc(O)cc2)NC1=O [compound 11] ({CH2CO}-AR[Ahp(2)]YHDRVL[Bip][Ahp(2)]DC-NH2; thioether N-13)
660000 M⁻¹ s⁻¹ | 0.0015 s⁻¹ | – | CCCCC[C@@H]1NC(=O)[C@H](CCCNC(=N)N)NC(=O)[C@H](C)NC(=O)CSC[C@@H](C(N)=O)NC(=O)[C@H](CC(=O)O)NC(=O)[C@H](CCCCC)NC(=O)[C@H](Cc2ccc(-c3ccccc3)cc2)NC(=O)[C@H](CC(C)C)NC(=O)[C@H](C(C)C)NC(=O)[C@H](CCCCNC(=N)N)NC(=O)[C@H](CC(=O)O)NC(=O)[C@H](Cc2c[nH]cn2)NC(=O)[C@H](Cc2ccc(O)cc2)NC1=O [compound 12] ({CH2CO}-AR[Ahp(2)]YHD[hArg]VL[Bip][Ahp(2)]DC-NH2; thioether N-13 (inferred); N-terminus and C-terminus assumed)
1.1e+06 M⁻¹ s⁻¹ | 0.024 s⁻¹ | – | CCCCC[C@@H]1NC(=O)[C@H](CCCNC(=N)N)NC(=O)[C@H](C)NC(=O)CSC[C@@H](C(N)=O)NC(=O)[C@H](CC(=O)O)NC(=O)[C@H](CCCCC)NC(=O)[C@H](Cc2ccc(-c3ccccc3)cc2)NC(=O)[C@H](CCS(C)(=O)=O)NC(=O)[C@H](C(C)C)NC(=O)[C@H](CCC(N)=O)NC(=O)[C@H](CC(=O)O)NC(=O)[C@H](Cc2c[nH]cn2)NC(=O)[C@H](Cc2ccc(O)cc2)NC1=O [compound 13] ({CH2CO}-AR[Ahp(2)]YHDQV[Met(O2)][Bip][Ahp(2)]DC-NH2; thioether N-13)
570000 M⁻¹ s⁻¹ | 0.022 s⁻¹ | – | CCCCC[C@@H]1NC(=O)[C@H](CCCNC(=N)N)NC(=O)[C@H](C)NC(=O)CSC[C@@H](C(N)=O)NC(=O)[C@H](CC(=O)O)NC(=O)[C@H](CCCCC)NC(=O)[C@H](Cc2ccc(-c3ccccc3)cc2)NC(=O)[C@H](CCS(C)(=O)=O)NC(=O)[C@H](C(C)C)NC(=O)[C@H](CCC(=O)O)NC(=O)[C@H](CC(=O)O)NC(=O)[C@H](Cc2c[nH]cn2)NC(=O)[C@H](Cc2ccc(O)cc2)NC1=O [compound 14] ({CH2CO}-AR[Ahp(2)]YHDEV[Met(O2)][Bip][Ahp(2)]DC-NH2; thioether N-13 (inferred); N-terminus and C-terminus assumed)
1.4e+06 M⁻¹ s⁻¹ | 0.013 s⁻¹ | 9.42 nM | CCCCC[C@@H]1NC(=O)[C@H](CCCNC(=N)N)NC(=O)[C@H](C)NC(=O)CSC[C@@H](C(N)=O)NC(=O)[C@H](CC(=O)O)NC(=O)[C@H](CCCCC)NC(=O)[C@H](Cc2ccc(-c3ccccc3)cc2)NC(=O)[C@H](CCS(C)(=O)=O)NC(=O)[C@H](C(C)C)NC(=O)[C@H](CCCNC(=N)N)NC(=O)[C@H](CC(=O)O)NC(=O)[C@H](Cc2c[nH]cn2)NC(=O)[C@H](Cc2ccc(O)cc2)NC1=O [compound 15] ({CH2CO}-AR[Ahp(2)]YHDRV[Met(O2)][Bip][Ahp(2)]DC-NH2; thioether N-13)
870000 M⁻¹ s⁻¹ | 0.015 s⁻¹ | 17.3 nM | CCCCC[C@@H]1NC(=O)[C@H](CCCNC(=N)N)NC(=O)[C@H](C)NC(=O)CSC[C@@H](C(N)=O)NC(=O)[C@H](CC(=O)O)NC(=O)[C@H](CCCCC)NC(=O)[C@H](Cc2ccc(-c3ccccc3)cc2)NC(=O)[C@H](CCS(C)(=O)=O)NC(=O)[C@H](C(C)C)NC(=O)[C@H](CCCCNC(=N)N)NC(=O)[C@H](CC(=O)O)NC(=O)[C@H](Cc2c[nH]cn2)NC(=O)[C@H](Cc2ccc(O)cc2)NC1=O [compound 16] ({CH2CO}-AR[Ahp(2)]YHD[hArg]V[Met(O2)][Bip][Ahp(2)]DC-NH2; thioether N-13)
210000 M⁻¹ s⁻¹ | 0.00091 s⁻¹ | 4.37 nM | CCCCC[C@@H]1NC(=O)[C@H](Cc2ccc(-c3ccccc3)cc2)NC(=O)[C@H](CC(C)C)NC(=O)[C@H](C(C)C)NC(=O)[C@H](CCC(=O)O)NC(=O)[C@H](CC(=O)O)NC(=O)[C@H](Cc2c[nH]cn2)NC(=O)[C@H](Cc2ccc(O)cc2)NC(=O)[C@H](CCCCC)NC(=O)[C@H](CCCNC(=N)N)NC(=O)[C@H](CCCCNC(=O)CCOCCOCCOCCOC)NC(=O)CSC[C@@H](C(N)=O)NC(=O)[C@H](CC(=O)O)NC1=O [compound 17] ({CH2CO}-K(X1)R[Ahp(2)]YHDEVL[Bip][Ahp(2)]DC-NH2; thioether N-13)
